Key:
[1] = target: Serotonin 1 receptors; 5-HT1B & 5-HT1D (Homo sapiens) (UniProt P28222+P28221); experiment: Relative binding to serotonin 5-HT1D and 5-HT1B receptors; assay type: protein assay
Rattus norvegicus [2] = experiment: Concentration of compound in rat plasma obtained from hepatic portal vein(hpv) blood samples following peroral administration at 3 mg/kg.; assay type: functional, organism-based; design: dose 3 mg/kg
[3] = target: T1, 5-hydroxytryptamine receptor 1D (Homo sapiens, UniProt P28221); experiment: Percent efficacy relative to 5-HT treatment of CHO cells expressing 5-HT 1d receptor; assay type: functional, cell-based
T1 sequence (P28221 whole entry): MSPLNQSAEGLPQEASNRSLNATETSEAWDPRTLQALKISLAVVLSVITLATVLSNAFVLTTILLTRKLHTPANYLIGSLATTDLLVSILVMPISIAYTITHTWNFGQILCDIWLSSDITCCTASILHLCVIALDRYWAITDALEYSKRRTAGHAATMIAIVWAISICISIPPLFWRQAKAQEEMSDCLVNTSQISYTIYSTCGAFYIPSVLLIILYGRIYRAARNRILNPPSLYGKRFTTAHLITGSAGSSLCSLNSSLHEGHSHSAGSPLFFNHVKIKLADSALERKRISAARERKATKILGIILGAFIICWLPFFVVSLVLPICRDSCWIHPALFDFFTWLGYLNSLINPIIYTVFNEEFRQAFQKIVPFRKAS

Rattus norvegicus [4] = experiment: Concentration of compound in rat plasma obtained from cardiac (systemic) blood samples following peroral administration at 3 mg/kg.; assay type: functional, organism-based; design: dose 3 mg/kg
[5] = target: T1, 5-hydroxytryptamine receptor 1D; experiment: Agonist induced [35S]GTP-gamma-S, binding in CHO cells expressing 5-HT 1d receptor; assay type: functional, cell-based
[6] = The ionization constant (pKa) for the compound measured potentiometrically
[7] = target: T1, 5-hydroxytryptamine receptor 1D; experiment: Displacement of [3H]5-HT from human 5-hydroxytryptamine 1D receptor expressed in CHO cells; assay type: cell-based

Selectivity [1]	Efficacy [3] [%]	EC50 [5] [nM]	pKa [6]	IC50 [7] [nM]	SMILES	Concentration (Rattus norvegicus [2]) [ng/mL]	Concentration (Rattus norvegicus [4]) [ng/mL]
57	62	0.6	9.7	0.35	c1ccc(CC2CCN(CCCc3c[nH]c4ccc(-n5cnnc5)cc34)CC2)cc1	25	< 2
6				2.2	CN(Cc1ccccc1)[C@H]1CCN(CCCc2c[nH]c3ccc(-n4cnnc4)cc23)C[C@H]1F		
230	104	18		5.4	CN(Cc1ccccc1)C1CCN(CC(F)Cc2c[nH]c3ccc(-n4cnnc4)cc23)CC1 (stereo unspecified)	57	2
18			8	13	CN(Cc1ccccc1)[C@@H]1CCN(CCCc2c[nH]c3ccc(-n4cnnc4)cc23)C[C@@H]1F	216	2
65	61	11	8.7	0.95	FC(Cc1c[nH]c2ccc(-n3cnnc3)cc12)CN1CCC(Cc2ccccc2)CC1 (stereo unspecified)	781	196

More lines, now with the values behind:

SMILES	Selectivity [1]	Efficacy [3] [%]	EC50 [5] [nM]	pKa [6]	IC50 [7] [nM]	Concentration (Rattus norvegicus [2]) [ng/mL]	Concentration (Rattus norvegicus [4]) [ng/mL]
Fc1cccc(CCN2CCN(CCCc3c[nH]c4ccc(-n5cnnc5)cc34)CC2)c1	125						
CN(Cc1ccccc1)C1CCN(CCCc2c[nH]c3ccc(-n4cnnc4)cc23)CC1	66	94				4	< 1
Fc1cccc(CCN2CCN(CC(F)Cc3c[nH]c4ccc(-n5cnnc5)cc34)CC2)c1 (stereo unspecified)	324	98	4.4		3.7		
FC1(Cc2ccccc2)CCN(CCCc2c[nH]c3ccc(-n4cnnc4)cc23)CC1	16	58	0.5	8.8	1	570	52
Fc1cccc(CCC2(F)CCN(CCCc3c[nH]c4ccc(-n5cnnc5)cc34)CC2)c1	30	71	5.1		0.75		
OC[C@H](NC1CCN(CC(F)Cc2c[nH]c3ccc(-n4cnnc4)cc23)CC1)c1ccc(F)cc1 (stereo partly specified)	225	95	1.7		1.4	5	< 1
OC[C@H](NC1CCN(CCCc2c[nH]c3ccc(-n4cnnc4)cc23)CC1)c1ccc(F)cc1	206	104				< 2	< 2
c1ccc(CN2CCN(CCCc3c[nH]c4ccc(-n5cnnc5)cc34)CC2)cc1	40			8.2		178	42

Source: ChEMBL document CHEMBL1131027, “Enhancement of oral absorption in selective 5-HT1D receptor agonists: fluorinated 3-[3-(piperidin-1-yl)propyl]indoles” (J Med Chem, 1998)
